Laboratory results reported in US5045549A, “Substituted 4-pyridone 3-carboxylic acid derivatives, method for their production and their pharmaceutical compositions” (priority 1986, dated 1991).
Converted amounts (≈) assume the structure as drawn. Read-outs that look alike come from different tables or passages of the source.

Key:
Assay in all cases: MIC agar dilution assay (Table III)
Format in all cases: cell-based
STREP FAEC = conditions: 18 h, read-out: MINIMAL INHIBITORY CONC.
Method: (§1) The results are summarized in Table III. |TEST: 406 METHOD: […] |MEDIUM: […] |INCUBATION: 18 Hrs. 35 Celsius | Aerobic: T

PSEU AERUG = conditions: 18 h, read-out: MINIMAL INHIBITORY CONC.
Method: as §1

ESCH COLI = conditions: 18 h, read-out: MINIMAL INHIBITORY CONC.
Method: as §1

CITRO DIV = conditions: 18 CITRO DIV K 82 24; 18 Hrs, 35 Celsius; read-out: MINIMAL INHIBITORY CONC.
Method: as §1

PROV STUA = conditions: 17 PROV STUA CMC 83 3; 18 Hrs, 35 Celsius; read-out: MINIMAL INHIBITORY CONC.
Method: as §1

PROT RETT = conditions: 16 PROT RETT IO 83 21; 18 Hrs, 35 Celsius; read-out: MINIMAL INHIBITORY CONC.
Method: (§2) TEST: 406 METHOD: AGAR DIL
(§3) MEDIUM: MUEL-HIN INOCULUM: 1.OE+04 - 5.OE+04
(§4) INCUBATION: 18 Hrs. 35 Celsius

MORG MORG = conditions: 18 h, read-out: MINIMAL INHIBITORY CONC.
Method: as §2, §3, §4

SERRAT MARC = conditions: 18 h, read-out: MINIMAL INHIBITORY CONC.
Method: as §2, §3, §4

ENTERO CLO = conditions: 18 h, read-out: MINIMAL INHIBITORY CONC.
Method: as §2, §3, §4

STAPH AUR = conditions: 18 h, read-out: MINIMAL INHIBITORY CONC.
Method: as §2, §3, §4

KLEB PNEUM = conditions: 18 h, read-out: MINIMAL INHIBITORY CONC.
Method: as §2, §3, §4

[1] = 25 STREP FAEC UCI 85 30, 35 Celsius
[2] = 26 STREP FAEC VGH 84 69, 35 Celsius
[3] = 27 STREP FAEC CMC 83 120, 35 Celsius
[4] = 19 PSEU AERUG K 84 16, 35 Celsius
[5] = 20 PSEU AERUG VGH 84 3, 35 Celsius
[6] = 21 PSEU AERUG CMC 83 20, 35 Celsius
[7] = 1 ESCH COLI MOR 84 20, 35 Celsius
[8] = 2 ESCH COLI VGH 84 19, 35 Celsius
[9] = 3 ESCH COLI CMC 84 50, 35 Celsius
[10] = 28 ESCH COLI ATCC 25922, 35 Celsius
[11] = 13 MORG MORG VGH 84 12, 35 Celsius
[12] = 14 MORG MORG CMC 84 38, 35 Celsius
[13] = 15 MORG MORG MOR 84 45, 35 Celsius
[14] = 10 SERRAT MARC MOR 84 41, 35 Celsius
[15] = 11 SERRAT MARC CMC 83 74, 35 Celsius
[16] = 12 SERRAT MARC IO 83 63, 35 Celsius
[17] = 7 ENTERO CLO VGH 84 39, 35 Celsius
[18] = 8 ENTERO CLO K 84 10, 35 Celsius
[19] = 9 ENTERO CLO MOR 84 30, 35 Celsius
[20] = 22 STAPH AUR VGH 84 47, 35 Celsius
[21] = 23 STAPH AUR K 82 26, 35 Celsius
[22] = 24 STAPH AUR CMC 83 131, 35 Celsius
[23] = 29 STAPH AUR ATCC 29213, 35 Celsius
[24] = 4 KLEB PNEUM CMC 84 31, 35 Celsius
[25] = 5 KLEB PNEUM MOR 84 24, 35 Celsius
[26] = 6 KLEB PNEUM IO 83 5, 35 Celsius

| SMILES | MIC (STREP FAEC; [1]) | MIC (STREP FAEC; [2]) | MIC (STREP FAEC; [3]) | MIC (PSEU AERUG; [4]) | MIC (PSEU AERUG; [5]) | MIC (PSEU AERUG; [6]) | MIC (ESCH COLI; [7]) | MIC (ESCH COLI; [8]) | MIC (ESCH COLI; [9]) | MIC (ESCH COLI; [10]) | MIC (CITRO DIV) | MIC (PROV STUA) | MIC (PROT RETT) | MIC (MORG MORG; [11]) | MIC (MORG MORG; [12]) | MIC (MORG MORG; [13]) | MIC (SERRAT MARC; [14]) | MIC (SERRAT MARC; [15]) | MIC (SERRAT MARC; [16]) | MIC (ENTERO CLO; [17]) | also measured |
| --- | --- | --- | --- | --- | --- | --- | --- | --- | --- | --- | --- | --- | --- | --- | --- | --- | --- | --- | --- | --- | --- |
| CN1CC2CC1CN2c1cc2c(cc1F)c(=O)c(C(=O)O)cn2-c1ccc(F)cc1F (stereo not shown) [Example 9, 6-Fluoro-1-(2,4-difluorophenyl)-1,4-dihydro7-(5-methyl-2,5-diazabicyclo(2.2.1)hept-2-yl)-4-oxoquinoline-3-carboxylic acid] | 0.5 µg/mL (≈ 1.16 µM) | 0.5 µg/mL (≈ 1.16 µM) | 0.5 µg/mL (≈ 1.16 µM) | 1 µg/mL (≈ 2.33 µM) | 4 µg/mL (≈ 9.32 µM) | 0.5 µg/mL (≈ 1.16 µM) | 0.015 µg/mL (≈ 0.0349 µM) | 0.015 µg/mL (≈ 0.0349 µM) | 0.06 µg/mL (≈ 0.14 µM) | 0.03 µg/mL (≈ 0.0699 µM) | 0.03 µg/mL (≈ 0.0699 µM) | 4 µg/mL (≈ 9.32 µM) | 0.06 µg/mL (≈ 0.14 µM) | 0.25 µg/mL (≈ 0.582 µM) | 0.25 µg/mL (≈ 0.582 µM) | 0.12 µg/mL (≈ 0.279 µM) | 0.12 µg/mL (≈ 0.279 µM) | 4 µg/mL (≈ 9.32 µM) | 0.5 µg/mL (≈ 1.16 µM) | 0.06 µg/mL (≈ 0.14 µM) | MIC (ENTERO CLO; [18]): 0.03 µg/mL (≈ 0.0699 µM); MIC (ENTERO CLO; [19]): 0.06 µg/mL (≈ 0.14 µM); MIC (STAPH AUR; [20]): 0.03 µg/mL (≈ 0.0699 µM); MIC (STAPH AUR; [21]): 0.015 µg/mL (≈ 0.0349 µM); MIC (STAPH AUR; [22]): 0.5 µg/mL (≈ 1.16 µM); MIC (STAPH AUR; [23]): 0.03 µg/mL (≈ 0.0699 µM); MIC (KLEB PNEUM; [24]): 0.06 µg/mL (≈ 0.14 µM); MIC (KLEB PNEUM; [25]): 0.06 µg/mL (≈ 0.14 µM); MIC (KLEB PNEUM; [26]): 0.12 µg/mL (≈ 0.279 µM) |
| O=C(O)c1cn(-c2ccc(F)cc2F)c2cc(N3CC4CC3CN4)c(F)cc2c1=O (stereo not shown) [Example 11, 7-(2,5-diazabicyclo(2.2.1)hept-2-yl)-6-fluoro-1-(2,4-difluorophenyl)-1,4-dihydro-4-oxoquinoline3-carboxylic acid] | 0.5 µg/mL (≈ 1.2 µM) | 0.5 µg/mL (≈ 1.2 µM) | 0.5 µg/mL (≈ 1.2 µM) | 0.5 µg/mL (≈ 1.2 µM) | 1 µg/mL (≈ 2.41 µM) | 0.25 µg/mL (≈ 0.602 µM) | 0.008 µg/mL (≈ 0.0193 µM) | 0.008 µg/mL (≈ 0.0193 µM) | 0.03 µg/mL (≈ 0.0722 µM) | 0.008 µg/mL (≈ 0.0193 µM) | 0.008 µg/mL (≈ 0.0193 µM) | 2 µg/mL (≈ 4.81 µM) | 0.03 µg/mL (≈ 0.0722 µM) | 0.06 µg/mL (≈ 0.144 µM) | 0.12 µg/mL (≈ 0.289 µM) | 0.03 µg/mL (≈ 0.0722 µM) | 0.06 µg/mL (≈ 0.144 µM) | 4 µg/mL (≈ 9.63 µM) | 0.25 µg/mL (≈ 0.602 µM) | 0.03 µg/mL (≈ 0.0722 µM) | MIC (ENTERO CLO; [18]): 0.015 µg/mL (≈ 0.0361 µM); MIC (ENTERO CLO; [19]): 0.03 µg/mL (≈ 0.0722 µM); MIC (STAPH AUR; [20]): 0.25 µg/mL (≈ 0.602 µM); MIC (STAPH AUR; [21]): 0.12 µg/mL (≈ 0.289 µM); MIC (STAPH AUR; [22]): 0.25 µg/mL (≈ 0.602 µM); MIC (STAPH AUR; [23]): 0.25 µg/mL (≈ 0.602 µM); MIC (KLEB PNEUM; [24]): 0.03 µg/mL (≈ 0.0722 µM); MIC (KLEB PNEUM; [25]): 0.06 µg/mL (≈ 0.144 µM); MIC (KLEB PNEUM; [26]): 0.06 µg/mL (≈ 0.144 µM) |
